Data: patent US20060013822A1, “Utilization of mhc class II binding motifs in immunization to produce immune, serum, monoclonal antibodies and vaccines” (priority 2002, published 2006)
“Also recorded” adds a separate entry of the source.

How the values were obtained:
C57B1/6J mice = test: Antibody response in sera of immunized C57B1/6J mice, fluorescence ELISA for anti-TR3 binding antibodies; assay type: in vivo, mouse; conditions: immune sera collected after four weeks
Protocol: C57B1/6J mice were immunized with the native TR3 peptide 1-32 or with an altered TR3 sequence that contains a Threonine (T) to Phenylalanine (F) alteration at amino acid position 4 to introduce a known C57B1/6J MHC Class II binding motif. Immune sera were collected after four weeks and assessed for anti-TR3 binding antibodies by fluorescence ELISA.
(§1) The serum from rats immunized with TR3 peptide 1-32 were tested in a standard ELISA for epitope specificity. The protocol for ELISA has been described previously in (Tittle, Molecular Immunology 26:343-350, 1989), except that the substrate (methylumbelliferyl phosphate, MUP, Sigma-Aldrich, St. Louis, Mo.) was read fluorometrically rather than calorimetrically as with NPP (Nitrophenyl phosphate).
A T to F change in the sequence of TR3 at AA4 an H-2^b binding motif was generated and C57B1/6J mice were immunized with the native TR3 peptide or with the T-F variant peptide.

[1] = tested on: Lymph node T cells from TR3 peptide 1-13 immune animals; test: Standard T cell proliferation assay (3H-thymidine incorporation); assay type: cell-based, Lewis rat; conditions: T cells from TR3 peptide 1-13 immune Lewis rats with antigen presenting cells; after 48 hours in culture, 18 hour period
Protocol: Lymph node T cells from TR3 peptide 1-13 immune animals were cultured in the presence of antigen presenting cells and either TR3 peptide 1-13 or TR3 peptide 14-32. ^3H-thymidine incorporation was assessed after 48 hours in culture for an 18 hour period. The T cells responded in this standard T cell proliferation assay to TR3 peptide 1-13 but not to TR3 peptide 14-32. […] This implies that the missing component is a B cell epitope.
(§2) Two peptides were synthesized, TR3 peptide 1-13 and TR3 peptide 1-32. Both contain the binding motif but only one was long enough to have a portion hanging outside of the MHC Class II binding cleft. Lewis rats were immunized with one or the other of these peptides and sera tested for the presence of antibodies that would recognize the TR31-32 peptide before and after immunization.

Lewis rats = test: Antibody response in sera of immunized Lewis rats, fluorescence ELISA on TR3 peptide coated plates; assay type: in vivo, Lewis rat; conditions: bled after six weeks; for antibody titer against TR3 peptide 1-32 in sera of rats immunized with the peptide: TR31-32 coated plates, before and after immunization
Protocol: Rats were immunized and rested for four weeks. Immune sera were assayed at 1:5000 and compared to pre-immune titers by fluorescence ELISA (see below) using TR3 peptide 1-32 coated plates.
Lewis rats were immunized with TR3 peptide 1-13 and after six weeks the animals were bled and sera tested for binding to TR31-13 or TR31-32 coated plates using fluorescence ELISA.
as §2, §1

QGGFRSPRCDCAGDFHKKIGLFCCRGCPAGHY (Altered TR3 peptide with MHC class II binding motif from amino acids 4 through 12.; listed as Homo sapiens)
detectable anti-TR3 binding antibodies in immune sera of mice immunized with the peptide (C57B1/6J mice): made an anti-TR3 response | detectable anti-TR3 binding antibodies in immune sera of mice immunized with the peptide (C57B1/6J mice; listed as T-F variant peptide): immunogenic and induced an antibody response

QGGTRSPRCDCAG (MEQRPRGCAAVAA) [TR3 peptide 1-13]
T cell proliferative response to the peptide in culture (3H-thymidine incorporation) [1]: very strong T cell responses; also recorded: good T-cell response | antibody titer against TR3 peptide 1-13 in sera of rats immunized with the peptide (Lewis rats; TR31-13 coated plates): No detectable antibody | antibody titer against TR3 peptide 1-32 in sera of rats immunized with the peptide (Lewis rats): No detectable antibody | antibody titer against TR3 peptide 1-32 in sera of rats immunized with the peptide (Lewis rats; listed as TR3 peptide): no appreciable antibody titer

TR3 peptide 14-32: amino acids 14-32 of the TR-3 peptide, extended peptide shown to be the B cell epitope (ALLLVLLGARAQGGTRSPR)
T cell proliferative response to the peptide in culture (3H-thymidine incorporation) [1]: not
